Assays:
Settings in all cases: primary screen
[1] = system: ENR+CD organoids (ISC to Paneth cell differentiation); assay: Primary screen: basal (non-stimulated) lysozyme secretion LYZ.NS, 2.5-D 384-well ENR+CD organoid differentiation; format: cell-based, mouse
From the text: (§1) High-throughput screening.

[2] = system: ENR+CD organoids (ISC to Paneth cell differentiation); assay: Primary screen: CCh-stimulated lysozyme secretion LYZ.S, 2.5-D 384-well ENR+CD organoid differentiation; format: cell-based, mouse
From the text: as §1

ENR+CD organoids = assay: Primary screen: ATP (CellTiter-Glo 3D, CTG) cell number/viability, 2.5-D 384-well ENR+CD organoids;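 note: compounds given at plating and again on day 3 over a 6-day differentiation from ENR+CV stem-cell-enriched precursors, ATP measured on day 6, plate median as control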

SMILES: C[C@@H]1COCCN1c1cc(C2(S(C)(=O)=O)CC2)nc(-c2cccc3[nH]ccc23)n1 [AZ20]
- Dose.FC.LYZ.NS ([1]; dose 0.08 uM): 0.042 log2 fold change
- Z.LYZ.NS (standard z score) ([1]; dose 0.08 uM): 0.365
- Dose.FC.LYZ.NS ([1]; dose 0.40 uM): −0.140 log2 fold change
- Z.LYZ.NS (standard z score) ([1]; dose 0.40 uM): −1.222
- Dose.FC.LYZ.NS ([1]; dose 2.00 uM): −0.215 log2 fold change
- Z.LYZ.NS (standard z score) ([1]; dose 2.00 uM): −1.868
- Dose.FC.LYZ.NS ([1]; dose 10.00 uM): −0.261 log2 fold change
- Z.LYZ.NS (standard z score) ([1]; dose 10.00 uM): −2.271
- Dose.FC.LYZ.S ([2]; dose 0.08 uM): −0.038 log2 fold change
- Dose.FC.LYZ.S ([2]; dose 0.40 uM): −0.236 log2 fold change
- Dose.FC.LYZ.S ([2]; dose 2.00 uM): −0.373 log2 fold change
- Dose.FC.LYZ.S ([2]; dose 10.00 uM): −0.329 log2 fold change
- Dose.FC.CTG (ENR+CD organoids; dose 0.08 uM): −0.210 log2 fold change
- Z.CTG (standard z score) (ENR+CD organoids; dose 0.08 uM): −0.500
- Dose.FC.CTG (ENR+CD organoids; dose 0.40 uM): −0.218 log2 fold change
- Z.CTG (standard z score) (ENR+CD organoids; dose 0.40 uM): −0.521
- Dose.FC.CTG (ENR+CD organoids; dose 2.00 uM): −1.054 log2 fold change
- Z.CTG (standard z score) (ENR+CD organoids; dose 2.00 uM): −2.519
- Dose.FC.CTG (ENR+CD organoids; dose 10.00 uM): −0.573 log2 fold change
- Z.CTG (standard z score) (ENR+CD organoids; dose 10.00 uM): −1.368

SMILES: COc1cc(N2CCN(C)CC2)ccc1Nc1nccc(-c2cn(C)c3cnccc23)n1 [AZ191]
- Dose.FC.LYZ.NS ([1]; dose 0.08 uM): 0.128 log2 fold change
- Z.LYZ.NS (standard z score) ([1]; dose 0.08 uM): 1.111
- Dose.FC.LYZ.NS ([1]; dose 0.40 uM): 0.082 log2 fold change
- Z.LYZ.NS (standard z score) ([1]; dose 0.40 uM): 0.717
- Dose.FC.LYZ.NS ([1]; dose 2.00 uM): 0.058 log2 fold change
- Z.LYZ.NS (standard z score) ([1]; dose 2.00 uM): 0.507
- Dose.FC.LYZ.NS ([1]; dose 10.00 uM): −0.148 log2 fold change
- Z.LYZ.NS (standard z score) ([1]; dose 10.00 uM): −1.289
- Dose.FC.LYZ.S ([2]; dose 0.08 uM): 0.143 log2 fold change
- Dose.FC.LYZ.S ([2]; dose 0.40 uM): 0.199 log2 fold change
- Dose.FC.LYZ.S ([2]; dose 2.00 uM): 0.097 log2 fold change
- Dose.FC.LYZ.S ([2]; dose 10.00 uM): −0.200 log2 fold change
- Dose.FC.CTG (ENR+CD organoids; dose 0.08 uM): 0.292 log2 fold change
- Z.CTG (standard z score) (ENR+CD organoids; dose 0.08 uM): 0.697
- Dose.FC.CTG (ENR+CD organoids; dose 0.40 uM): 0.337 log2 fold change
- Z.CTG (standard z score) (ENR+CD organoids; dose 0.40 uM): 0.804
- Dose.FC.CTG (ENR+CD organoids; dose 2.00 uM): 0.150 log2 fold change
- Z.CTG (standard z score) (ENR+CD organoids; dose 2.00 uM): 0.358
- Dose.FC.CTG (ENR+CD organoids; dose 10.00 uM): −0.533 log2 fold change
- Z.CTG (standard z score) (ENR+CD organoids; dose 10.00 uM): −1.272

SMILES: COc1cc(OC2CCN(C)CC2)ccc1Nc1ncc2c(n1)n(C1CCCC1)c(=O)n2C [AZ 3146]
- Dose.FC.LYZ.NS ([1]; dose 0.08 uM): 0.073 log2 fold change
- Z.LYZ.NS (standard z score) ([1]; dose 0.08 uM): 0.639
- Dose.FC.LYZ.NS ([1]; dose 0.40 uM): −0.038 log2 fold change
- Z.LYZ.NS (standard z score) ([1]; dose 0.40 uM): −0.327
- Dose.FC.LYZ.NS ([1]; dose 2.00 uM): −0.079 log2 fold change
- Z.LYZ.NS (standard z score) ([1]; dose 2.00 uM): −0.687
- Dose.FC.LYZ.NS ([1]; dose 10.00 uM): −0.281 log2 fold change
- Z.LYZ.NS (standard z score) ([1]; dose 10.00 uM): −2.447
- Dose.FC.LYZ.S ([2]; dose 0.08 uM): 0.049 log2 fold change
- Dose.FC.LYZ.S ([2]; dose 0.40 uM): −0.067 log2 fold change
- Dose.FC.LYZ.S ([2]; dose 2.00 uM): −0.130 log2 fold change
- Dose.FC.LYZ.S ([2]; dose 10.00 uM): −0.422 log2 fold change
- Dose.FC.CTG (ENR+CD organoids; dose 0.08 uM): −0.130 log2 fold change
- Z.CTG (standard z score) (ENR+CD organoids; dose 0.08 uM): −0.310
- Dose.FC.CTG (ENR+CD organoids; dose 0.40 uM): −0.262 log2 fold change
- Z.CTG (standard z score) (ENR+CD organoids; dose 0.40 uM): −0.626
- Dose.FC.CTG (ENR+CD organoids; dose 2.00 uM): −0.369 log2 fold change
- Z.CTG (standard z score) (ENR+CD organoids; dose 2.00 uM): −0.881
- Dose.FC.CTG (ENR+CD organoids; dose 10.00 uM): −1.168 log2 fold change
- Z.CTG (standard z score) (ENR+CD organoids; dose 10.00 uM): −2.789

SMILES: CC(=O)Nc1cccc2c1c(Sc1ccc(Cl)cc1)c(C)n2CC(=O)O [AZD1981]
- Dose.FC.LYZ.NS ([1]; dose 0.08 uM): 0.009 log2 fold change
- Z.LYZ.NS (standard z score) ([1]; dose 0.08 uM): 0.081
- Dose.FC.LYZ.NS ([1]; dose 0.40 uM): 0.001 log2 fold change
- Z.LYZ.NS (standard z score) ([1]; dose 0.40 uM): 0.008
- Dose.FC.LYZ.NS ([1]; dose 2.00 uM): 0.001 log2 fold change
- Z.LYZ.NS (standard z score) ([1]; dose 2.00 uM): 0.011
- Dose.FC.LYZ.NS ([1]; dose 10.00 uM): 0.024 log2 fold change
- Z.LYZ.NS (standard z score) ([1]; dose 10.00 uM): 0.205
- Dose.FC.LYZ.S ([2]; dose 0.08 uM): 0.023 log2 fold change
- Dose.FC.LYZ.S ([2]; dose 0.40 uM): 0.191 log2 fold change
- Dose.FC.LYZ.S ([2]; dose 2.00 uM): 0.014 log2 fold change
- Dose.FC.LYZ.S ([2]; dose 10.00 uM): 0.070 log2 fold change
- Dose.FC.CTG (ENR+CD organoids; dose 0.08 uM): 0.400 log2 fold change
- Z.CTG (standard z score) (ENR+CD organoids; dose 0.08 uM): 0.955
- Dose.FC.CTG (ENR+CD organoids; dose 0.40 uM): 0.285 log2 fold change
- Z.CTG (standard z score) (ENR+CD organoids; dose 0.40 uM): 0.681
- Dose.FC.CTG (ENR+CD organoids; dose 2.00 uM): 0.099 log2 fold change
- Z.CTG (standard z score) (ENR+CD organoids; dose 2.00 uM): 0.236
- Dose.FC.CTG (ENR+CD organoids; dose 10.00 uM): 0.238 log2 fold change
- Z.CTG (standard z score) (ENR+CD organoids; dose 10.00 uM): 0.570

SMILES: COC1CCN(C(=O)c2cc(Cc3n[nH]c(=O)c4ccccc34)ccc2F)CC1 [AZD2461]
- Dose.FC.LYZ.NS ([1]; dose 0.08 uM): 0.038 log2 fold change
- Z.LYZ.NS (standard z score) ([1]; dose 0.08 uM): 0.334
- Dose.FC.LYZ.NS ([1]; dose 0.40 uM): −0.038 log2 fold change
- Z.LYZ.NS (standard z score) ([1]; dose 0.40 uM): −0.327
- Dose.FC.LYZ.NS ([1]; dose 2.00 uM): −0.074 log2 fold change
- Z.LYZ.NS (standard z score) ([1]; dose 2.00 uM): −0.641
- Dose.FC.LYZ.NS ([1]; dose 10.00 uM): −0.172 log2 fold change
- Z.LYZ.NS (standard z score) ([1]; dose 10.00 uM): −1.497
- Dose.FC.LYZ.S ([2]; dose 0.08 uM): 0.097 log2 fold change
- Dose.FC.LYZ.S ([2]; dose 0.40 uM): 0.015 log2 fold change
- Dose.FC.LYZ.S ([2]; dose 2.00 uM): −0.100 log2 fold change
- Dose.FC.LYZ.S ([2]; dose 10.00 uM): −0.224 log2 fold change
- Dose.FC.CTG (ENR+CD organoids; dose 0.08 uM): 0.073 log2 fold change
- Z.CTG (standard z score) (ENR+CD organoids; dose 0.08 uM): 0.174
- Dose.FC.CTG (ENR+CD organoids; dose 0.40 uM): −0.040 log2 fold change
- Z.CTG (standard z score) (ENR+CD organoids; dose 0.40 uM): −0.095
- Dose.FC.CTG (ENR+CD organoids; dose 2.00 uM): −0.232 log2 fold change
- Z.CTG (standard z score) (ENR+CD organoids; dose 2.00 uM): −0.555
- Dose.FC.CTG (ENR+CD organoids; dose 10.00 uM): −0.336 log2 fold change
- Z.CTG (standard z score) (ENR+CD organoids; dose 10.00 uM): −0.803
